Assay results from patent US20090143419A1, “METHODS AND COMPOSITIONS FOR CONTROLLING ECTOPARASITES” (HATCHTECH PTY LTD, priority 2005, published 2009).

Legend:
[1] = tested on: lice hatching proteases in the egg shell washings (ESW); experiment: Gelatine substrate SDS-PAGE of egg shell washings treated with protease inhibitors; type: biochemical, Pediculus humanus humanus; conditions: 10 mM inhibitor; 3 hrs at 37° C.
Description: Within 12 hours of hatching 50 body lice eggs (Pediculus humanus humanus) were removed from the hair and placed in a 1 ml eppendorf tube. 20 μL of distilled water was added to the unhatched eggs and the preparation incubated for 30 minutes at 32° C. The 20 μL was recovered, freeze dried and stored at −70° C. A number of other samples were also collected as described. Hair samples from which unhatched lice eggs had been removed were also collected and incubated as described above. In addition, a sample of unhatched eggs and a sample of hair from which lice eggs had been removed were collected 7 days post laying (within 24 hrs of egg hatching). Both samples were washed in 10 mls of a 1% solution of sodium hypochlorite for 1 minute followed by a 5×1 minute washes in 25 mls in distilled water to remove the hypochlorite. These samples were then incubated in 20 μL of distilled water as described above. In addition, a group of 25 lice eggs that were within 24 hours of hatching, were pretreated with 1% sodium hypochlorite, washed as described above and left to hatch. Within 1-2 hours after hatching the empty egg shells were incubated in 20 μL of distilled water as described above, the washings collected from the hatched egg shells and stored at −70° C. All of the extract samples were then freeze-dried overnight. The freeze-dried samples were then resuspended in 15 μL of non-reducing SDS sample buffer, centrifuged at 10,000 g for 2 minutes and the entire 15 μL loaded on to 10% gelatine substrate SD S-PAGE gels. Gels were run at 4° C. for 10 minutes at 10 mA followed by a further 25 minutes at 15 mA per gel. They were then incubated for 2×20 minutes in a 2.5% Triton-X 100 solution followed by a three hour incubation in 0.1M Tris/HCl containing 1 mM CaCl2 pH 8.0. Activity was detected as clear areas on the gel the result of protease activity degrading the gelatine within the gel.
10% SDS-PAGE gelatine substrate gels were loaded with freeze dried egg shell washings from 100 lice eggs that had been resuspended in 50 μl of non-reducing sample buffer with samples run at 10 μl per lane. Gels were run at 4° C. for 10 minutes at 10 mA per gel followed by a further 25 minutes at 15 mA per gel. Gels were then cut into strips and each strip incubated for 2×20 minutes in a 2.5% Triton-X 100 solution containing a specific inhibitor. The inhibitors used were the serine protease inhibitor PMSF (5 mM), the metalloprotease inhibitor 1,10-phenanthroline (10 mM), the aspartic protease Pepstatin (5 μM) and the cysteine inhibitor E-64 (10 μM). The gel strips were then incubated in 0.1M Tris/HCl containing 1 mM CaCl2 pH 8 containing the different protease inhibitors for 3 hrs at 37° C., before being stained in Coomassie blue and destained as previously described.

lice eggs = experiment: Lice egg-hatch bioassay, eggs treated five days post laying; type: in vivo, clothing lice (Pediculus humanus humanus)
Description: To evaluate the potential effects of protease inhibitors on lice egg hatching it was necessary to develop a reliable in vitro bioassay. Male and female clothing lice were fed on a rabbit as previously described. […] During this period the female lice laid their eggs and attached them to the woven cloth. All lice would then be removed and the eggs permitted to incubate for the following 5 days. […] The eggs would then progress through to their final stages of development and hatch. In untreated control eggs a reliable average percentage hatch of between 85-95 percent was obtained using the in vitro egg hatch assay. […] Lice eggs were laid onto cloth as described above. […] Protease inhibitor solutions were typically prepared as stock solutions and added fresh at the appropriate concentration. Specifically stock solutions were prepared as follows: 1,10-phenanthroline (200 mM in methanol) and bestatin (5 mg/ml in methanol). In addition, the equivalent levels of the solvent were added to the non-inhibitor containing controls eggs to test for any buffer alone effects. Percentage hatch inhibition was calculated as the percentage reduction in egg hatch compared to the untreated control.

head lice eggs = experiment: Assessment of commercial lice products in the standard lice egg-hatching assay; type: in vivo; conditions: summary in words
Description: These three products were tested according to manufacturer's recommendations. Groups of eggs (24 hr old) were treated with the different products according to manufacturer's recommendations for the appropriate period of time (5-10 minutes) followed by a rinse for 1-2 minutes in 32° C. water. A positive controls (10 mM 1,10-phenanthroline) and two negative controls (no treatment and 20% Methanol) were also incorporated. Post exposure to the different products, the eggs were rinsed with warm water at 32° C. before being blotted dry on tissue paper and placed at 32° C., 70% RH and left to hatch. A second group of eggs, (48 hr old) were treated as previously described and also left to hatch. This process was repeated at 24 hr intervals on head lice eggs up to 120 hr post laying. This method of assaying inhibitors more closely mirrors the field situation where lice eggs will be at various stages of development on the head and permits the inhibitory effects to be observed on these different stages of the parasite.
These two products were tested according to manufacturer's recommendations. Groups of eggs (24 hr old) were treated with the different products according to manufacturer's recommendations for the appropriate period of time (5-10 minutes) followed by a rinse for 1-2 minutes in 32° C. water. Two negative controls (no treatment and 20% ethanol) were also incorporated. […]

[2] = tested on: Plutella xylostella eggs (Waite strain); experiment: Egg hatching of Plutella xylostella; conditions: Table 9; 10 mM; relative to control (100% MeOH)
Description: The egg masses were then placed in a humid box at 25 degrees until egg hatch. Control eggs were exposed to absolute methanol as described above. At day 6 post laying the eggs were assessed from the different treatments and the percentage of egg hatch determined relative to the control as shown in Table 9.
Batches of Plutella eggs that were laid on either fine cloth or parafilm were dipped in a specific inhibitor solution for between 2-10 seconds, the excess solution was drained by blotting with dry tissue paper. The egg masses were then placed in a humid box at 25 degrees until egg hatch. Control eggs were exposed to absolute methanol as described above or not treated. At day 6 post laying the eggs were assessed from the different treatments and the percentage of egg hatch determined relative to the controls as shown in Tables 10 and 11.
Batches of Plutella eggs that were laid on fine cloth were dipped in a specific inhibitor solution for approximately 2 seconds, the excess solution was drained by blotting with dry tissue paper. The egg masses were then placed in a humid box at 25 degrees until egg hatch. Control eggs were exposed to absolute methanol as described above or not treated. At day 6 post laying the eggs were assessed from the different treatments and the percentage of egg hatch determined relative to the control as shown in Table 12.
The egg masses were then placed in a humid box at 25 degrees until egg hatch. Control eggs were exposed to absolute ethanol as described above. On day 6 post laying the eggs were assessed from the different treatments and the percentage of egg hatch determined relative to the control.

[3] = tested on: Helicoverpa armigera eggs (Tatura×Toowoomba strains); experiment: Egg hatching of Helicoverpa armigera; conditions: Table 14; 10 mM; relative to control
Description: Several hundred Helicoverpa armigera eggs (Tatura×Toowoomba strains) were collected, that had been laid on fine mesh cloth over a 24 hour period.
Batches of Helicoverpa eggs were exposed to a specific inhibitor solution for between 2-10 seconds the excess solution drained by blotting with dry tissue paper. The egg masses were then placed in a humid box at 25 degrees until egg hatch. Control eggs were exposed to absolute methanol as described above.

With `c1cnc2c(c1)ccc1cccnc12` [1,10-phenanthroline] the “protease activity of the ESW” value [1] was “significant reduction in protease activity”, the “egg hatching in lice” value (lice eggs; 10 mM, eggs treated 5 days post laying) was “significantly inhibited egg hatching” and the “inhibition of egg hatching” value (lice eggs; added within 24 hours of hatching) was “variable inhibition”. The “ovicidal activity across the different stages of lice egg hatching” value (head lice eggs) was “highly effective at inhibiting lice egg hatching”, the “% Inhibition” value [2] was “significantly inhibit egg hatching” and the “% Inhibition” value [3] was “able to inhibit egg hatching”.
